From patent US11596643B2 (Sichuan Yingrui Pharmaceutical Technology Company, priority 2019, dated 2023)
Values after ≈ are worked out from the molar mass of the structure shown.

Legend:
HT-29 colon cancer = test: In-vivo pharmacodynamic test, tumor-bearing mice; conditions: HT-29 colon cancer tumor-bearing mice, 5 mg/kg adriamycin equivalent, intravenously injected 4 times
Procedure: (§1) In-vivo pharmacodynamic test: H22 liver cancer cells, 4T1 breast cancer cells, EMT6 breast cancer cells and HT-29 colon cancer cells that were growing at logarithmic phase were collected, and the concentration of the cell suspension was adjusted to 3×10^7 cells/mL. The cells were subcutaneously inoculated into right upper extremity of Balb/c mice or nude mice with 0.1 mL per mouse (containing about 3×10^6 cells). After the average tumor volume of the inoculated mice was reached 100 mm^3, the tumor-bearing mice were randomly divided into a negative control group (with 0.9% sodium chloride injection), an adriamycin control group (5 mg/kg) and a pectin-adriamycin experimental group (the equivalent of adriamycin being 5 mg/kg) respectively, 8 mice for each group, the above various drugs were intravenously injected for 4 times in total. The tumor volume change and the body weights were recorded, and the equation for volume calculation was as follows: volume=(length×width^2)/2.

4T1 breast cancer [1] = test: In-vivo pharmacodynamic test, tumor-bearing mice; conditions: 4T1 breast cancer tumor-bearing mice, 5 mg/kg adriamycin equivalent, intravenously injected 4 times
Procedure: as §1

EMT-6 breast cancer = test: In-vivo pharmacodynamic test, tumor-bearing mice; conditions: EMT-6 breast cancer tumor-bearing mice, 5 mg/kg adriamycin equivalent, intravenously injected 4 times
Procedure: as §1

H22 liver cancer [2] = test: In-vivo pharmacodynamic test, tumor-bearing mice; conditions: 5 mg/kg adriamycin equivalent, intravenously injected 4 times
Procedure: as §1

[3] = Body weight and death of tumor-bearing mice in the in-vivo pharmacodynamic test
Procedure: as §1

Solubility in water = format: physicochemical
H22 liver cancer [4] = test: Comparison with the control compound, H22 liver cancer mice tumor model; format: in vivo
[5] = tested on: SMMC7721 liver cancer cells; test: In-vitro cytotoxicity test (CCK-8); format: cell-based
Procedure: (§2) In-vitro cytotoxicity test: HT-29 colon cancer cells, HepG-2 liver cancer cells, SMMC7721 liver cancer cells, SKOV3 ovarian cancer cells and MCF-7 breast cancer cells that were growing at the logarithmic phase were collected. The concentration of cell suspension was adjusted, and 100 uL of the cell suspension was added per well, then the cells were plated so that the density of cells to be tested was 4000 cells/well (the marginal wells being filled with a sterile PBS). Incubation was performed for 24 hours at 5% CO2 and 37° C. Then the medium was discarded, and pectin-adriamycin or adriamycin with a concentration gradient (containing 0.125, 0.25, 0.5, 1.0, 2.0, 4.0, 8.0 and 16.0 ug/mL of […]) was added, and three repetitions were set for each concentration. Then incubation was performed for 48 hours in an incubator at 5% CO2 and 37° C. 10 μl of a CCK-8 solution was added to each well to continue cultivation for 2 hours. The absorbance of each well at 450 nm was measured with an Enzyme-labelled meter, and IC50 values of pectin-adriamycin and adriamycin for various cancer cells were calculated.

HT-29 colon cancer cells = test: In-vitro cytotoxicity test (CCK-8); format: cell-based
Procedure: as §2

[6] = tested on: MCF-7 breast cancer cells; test: In-vitro cytotoxicity test (CCK-8); format: cell-based
Procedure: as §2

[7] = tested on: HepG-2 liver cancer cells; test: In-vitro cytotoxicity test (CCK-8); format: cell-based
Procedure: as §2

[8] = tested on: SKOV3 ovarian cancer cells; test: In-vitro cytotoxicity test (CCK-8); format: cell-based
Procedure: as §2

4T1 breast cancer [9] = test: Comparison with the control compound, 4T1 breast cancer mice tumor model; format: in vivo
[10] = tumor-bearing mice, 5 mg/kg adriamycin equivalent, i.v. 4 times
[11] = Example 16, conjugate intravenous, control intraperitoneal

Question: What does the source list for “modified pectin-PEG8-VAPABC-adriamycin [pectin-adriamycin conjugate]”?
Answer: curative effect (HT-29 colon cancer): better than that of the adriamycin control; tumor growth inhibition rate (4T1 breast cancer [1]): 78.1%; tumor growth inhibition rate (EMT-6 breast cancer): 71.68%; tumor growth inhibition rate (H22 liver cancer [2]): 72.98%; body weights of the mice [3, 10]: not significantly decreased; death of mice [3, 10]: no a mouse died; Solubility in water (Solubility in water): 10 mg/ml, solubility being; tumor inhibition rate (H22 liver cancer [4]; [11]): 70.83%; inhibition time (H22 liver cancer [4]; same dosage, versus control compound (FIG. 8)): longer; IC50, SMMC7721 liver cancer ([5]; 48 hours incubation): 2.31 µg/mL; IC50, HT-29 colon cancer (HT-29 colon cancer cells; 48 hours incubation): 10.74 µg/mL; IC50, MCF-7 breast cancer ([6]; 48 hours incubation): 3.961 µg/mL; IC50, HepG-2 liver cancer ([7]; 48 hours incubation): 4.11 µg/mL; IC50, SKOV3 ovarian cancer ([8]; 48 hours incubation): 5.488 µg/mL; tumor inhibition rate (4T1 breast cancer [9]; [11]): 76.20%; inhibition time (4T1 breast cancer [9]; same dosage, versus control compound (FIG. 9)): longer

Question: Which results are given for `COc1cccc2c1C(=O)c1c(O)c3c(c(O)c1C2=O)C[C@@](O)(C(=O)CO)C[C@@H]3O[C@H]1C[C@H](N)[C@H](O)[C@H](C)O1` [adriamycin, reference compound]?
Answer: tumor growth inhibition rate (4T1 breast cancer [1]): 50.61%; tumor growth inhibition rate (EMT-6 breast cancer): 56.95%; tumor growth inhibition rate (H22 liver cancer [2]): 53.42%; body weight decrease ([3]; mouse, in vivo, iv, 5 mg/kg): more than 15%; body weights of the mice ([3]; mouse, in vivo, iv, 5 mg/kg): significantly decreased; death of mice [3, 10]: minormice died; IC50 ([5]; Homo sapiens, SMMC-7721, 48 hours incubation): 2.62 µg/mL (≈ 4.82 µM); IC50 (HT-29 colon cancer cells; Homo sapiens, HT-29, 48 hours incubation): 10.9 µg/mL (≈ 20.1 µM); IC50 ([6]; Homo sapiens, MCF7, 48 hours incubation): 3.97 µg/mL (≈ 7.3 µM); IC50 ([7]; Homo sapiens, HepG2, 48 hours incubation): 4.38 µg/mL (≈ 8.05 µM); IC50 ([8]; Homo sapiens, SK-OV-3, 48 hours incubation): 5.7 µg/mL (≈ 10.5 µM)
